Patent US11492343B2, “Polymorph of flibanserin and preparation method thereof and use of same” (priority 2016, dated 2022)

Columns and labels:
[1] = prior art; cited from earlier work
[2] = prior art WO2003/014079; cited from earlier work
[3] = Solubility of crystal forms in pH 6.8 buffer solution (HPLC of filtrate); assay type: physicochemical; conditions: for Solubility in pH 6.8 buffer: 20 mg in 1 mL pH 6.8 buffer, suspension equilibrated for 1 hour, 0.45 μm filter, HPLC; for Solubility compared with crystal form A: in physiological solution
Experimental: The solubility of several new crystal forms prepared in the above examples and Form A (prepared according to the method of WO2003/014079) in a pH buffer solution (pH 6.8) was determined. Precisely weigh 20 mg Form I, Form II, Form V and Form A in a 2-mL glass vial, add 1 mL of pH 6.8 buffer, seal with cap, and mix on a rotating mixer. After the suspension was equilibrated for 1 hour, the mixture was filtered through a 0.45 μm needle filter, and the concentration of flibanserin in the filtrate was analyzed by HPLC to obtain the solubility of different crystal forms.

Compound	Solubility in pH 6.8 buffer [3]	Solubility compared with crystal form A [3]	Solubility in water [1]	Stability under pressure and mechanical stress conditions [2]
O=c1[nH]c2ccccc2n1CCN1CCN(c2cccc(C(F)(F)F)c2)CC1 [Form A]			very small	
O=c1[nH]c2ccccc2n1CCN1CCN(c2cccc(C(F)(F)F)c2)CC1 [Form B]				low stability

More lines, main results first:

Solubility in pH 6.8 buffer [3]	Solubility compared with crystal form A [3]	Compound	Solubility in water [1]	Stability under pressure and mechanical stress conditions [2]
0.008 mg/mL	greater	O=c1[nH]c2ccccc2n1CCN1CCN(c2cccc(C(F)(F)F)c2)CC1 [Form II]		
0.004 mg/mL	greater	O=c1[nH]c2ccccc2n1CCN1CCN(c2cccc(C(F)(F)F)c2)CC1 [Form I]		
0.010 mg/mL	greater	O=c1[nH]c2ccccc2n1CCN1CCN(c2cccc(C(F)(F)F)c2)CC1 [Form V]		
